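Where inhibition never reached the appropriate level, the endpoint shown equals the highest concentration tested. Otherwise, values were interpolated linearly from a five-concentration, 48-hour dose response in 96-well plates. At the GI50, growth is halved. TGI marks complete inhibition of growth.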
Experiments:
Assay in all cases: growth of human tumour cells (NCI), 48 h; in the data active = GI50 below about 0.43 µM; inactive = the rest
CAKI-1 renal = system: CAKI-1 renal
KM12 colon = system: KM12 colon
OVCAR-3 ovarian = system: OVCAR-3 ovarian
OVCAR-8 ovarian = system: OVCAR-8 ovarian
NCI-H23 lung = system: NCI-H23 lung
SNB-75 CNS = system: SNB-75 CNS
SF-295 CNS = system: SF-295 CNS
HCT-15 colon = system: HCT-15 colon
RPMI-8226 leukemia = system: RPMI-8226 leukemia
MALME-3M melanoma = system: MALME-3M melanoma

CC(=O)[CH-]C(C)=O.[CH2-]C.[CH2-]C.[Tl+3]
> 100 µM: TGI (CAKI-1 renal) | TGI (KM12 colon) | TGI (OVCAR-3 ovarian) | TGI (OVCAR-8 ovarian) | TGI (NCI-H23 lung) | TGI (SNB-75 CNS) | TGI (SF-295 CNS) | TGI (HCT-15 colon) | TGI (RPMI-8226 leukemia) | TGI (MALME-3M melanoma)
inactive: GI50 (CAKI-1 renal) > 100 µM | GI50 (KM12 colon) > 100 µM | GI50 (OVCAR-3 ovarian) > 100 µM | GI50 (OVCAR-8 ovarian) > 100 µM | GI50 (NCI-H23 lung) > 100 µM | GI50 (SNB-75 CNS) > 100 µM | GI50 (SF-295 CNS) > 100 µM | GI50 (HCT-15 colon) > 100 µM | GI50 (RPMI-8226 leukemia) > 100 µM | GI50 (MALME-3M melanoma) > 100 µM

CNC(SC)=C1C(=O)OC(C)(C)OC1=O
> 100 µM: TGI (CAKI-1 renal) | TGI (KM12 colon) | TGI (OVCAR-3 ovarian) | TGI (OVCAR-8 ovarian) | TGI (NCI-H23 lung) | TGI (SNB-75 CNS) | TGI (SF-295 CNS) | TGI (RPMI-8226 leukemia) | TGI (MALME-3M melanoma)
40.9 µM: TGI (HCT-15 colon)

C=CCSc1nc2ccccc2c(=O)n1Cc1ccco1
> 100 µM: TGI (CAKI-1 renal) | TGI (KM12 colon) | TGI (OVCAR-3 ovarian) | TGI (OVCAR-8 ovarian) | TGI (NCI-H23 lung) | TGI (SNB-75 CNS) | TGI (SF-295 CNS) | TGI (HCT-15 colon) | TGI (RPMI-8226 leukemia) | TGI (MALME-3M melanoma)

C[C@H](Cn1ncnn1)Nc1ncc2cc(Oc3ccc(F)cc3F)c(=O)n(C)c2n1
inactive: GI50 (CAKI-1 renal) > 25 µM | GI50 (KM12 colon) > 25 µM | GI50 (OVCAR-3 ovarian) > 25 µM | GI50 (OVCAR-8 ovarian) > 25 µM | GI50 (NCI-H23 lung) > 25 µM | GI50 (SNB-75 CNS) > 25 µM | GI50 (SF-295 CNS) > 25 µM | GI50 (HCT-15 colon) > 25 µM | GI50 (RPMI-8226 leukemia) > 25 µM | GI50 (MALME-3M melanoma) > 25 µM
> 25 µM: TGI (CAKI-1 renal) | TGI (KM12 colon) | TGI (OVCAR-3 ovarian) | TGI (OVCAR-8 ovarian) | TGI (NCI-H23 lung) | TGI (SNB-75 CNS) | TGI (SF-295 CNS) | TGI (HCT-15 colon) | TGI (RPMI-8226 leukemia) | TGI (MALME-3M melanoma)

C#CCC(N)(CO)C(=O)O (stereo not given)
> 100 µM: TGI (CAKI-1 renal) | TGI (KM12 colon) | TGI (OVCAR-3 ovarian) | TGI (OVCAR-8 ovarian) | TGI (NCI-H23 lung) | TGI (SNB-75 CNS) | TGI (SF-295 CNS) | TGI (HCT-15 colon) | TGI (RPMI-8226 leukemia) | TGI (MALME-3M melanoma)

O=S(=O)(CCOCc1ccc(-c2ccc3ncnc(Nc4ccc(OCc5cccc(F)c5)c(Cl)c4)c3c2)o1)c1ccccc1
inactive: GI50 (CAKI-1 renal) 0.831 µM | GI50 (KM12 colon) > 25 µM | GI50 (OVCAR-3 ovarian) > 25 µM | GI50 (OVCAR-8 ovarian) > 25 µM | GI50 (NCI-H23 lung) > 25 µM | GI50 (SNB-75 CNS) > 25 µM | GI50 (SF-295 CNS) > 25 µM | GI50 (HCT-15 colon) > 25 µM | GI50 (RPMI-8226 leukemia) > 25 µM | GI50 (MALME-3M melanoma) > 25 µM
> 25 µM: TGI (CAKI-1 renal) | TGI (KM12 colon) | TGI (OVCAR-3 ovarian) | TGI (OVCAR-8 ovarian) | TGI (NCI-H23 lung) | TGI (SNB-75 CNS) | TGI (SF-295 CNS) | TGI (HCT-15 colon) | TGI (RPMI-8226 leukemia) | TGI (MALME-3M melanoma)

CC(=O)[O-].CC(=O)[O-].CC(=O)[O-].CC(=O)[O-].[Mo+2].[Mo+2]
> 100 µM: TGI (CAKI-1 renal) | TGI (KM12 colon) | TGI (OVCAR-3 ovarian) | TGI (OVCAR-8 ovarian) | TGI (NCI-H23 lung) | TGI (SNB-75 CNS) | TGI (SF-295 CNS) | TGI (HCT-15 colon) | TGI (RPMI-8226 leukemia) | TGI (MALME-3M melanoma)
inactive: GI50 (CAKI-1 renal) > 100 µM | GI50 (KM12 colon) > 100 µM | GI50 (OVCAR-3 ovarian) > 100 µM | GI50 (OVCAR-8 ovarian) > 100 µM | GI50 (NCI-H23 lung) > 100 µM | GI50 (SNB-75 CNS) 63.5 µM | GI50 (SF-295 CNS) > 100 µM | GI50 (HCT-15 colon) > 100 µM | GI50 (RPMI-8226 leukemia) > 100 µM | GI50 (MALME-3M melanoma) > 100 µM

CCC(=C(c1ccc(OCCCN(C)C)cc1)c1ccc(OCCCN(C)C)cc1)c1ccc(Cl)cc1
1.08 µM: TGI (OVCAR-3 ovarian)
4.98 µM: TGI (NCI-H23 lung)
3.43 µM: TGI (KM12 colon)
2.19 µM: TGI (CAKI-1 renal)
0.871 µM: TGI (RPMI-8226 leukemia)
3.89 µM: TGI (SNB-75 CNS)
0.973 µM: TGI (MALME-3M melanoma)
inactive: GI50 (CAKI-1 renal) 0.56 µM | GI50 (KM12 colon) 1.26 µM | GI50 (OVCAR-3 ovarian) 0.429 µM | GI50 (OVCAR-8 ovarian) 0.933 µM | GI50 (NCI-H23 lung) 2.5 µM | GI50 (SNB-75 CNS) 1.56 µM | GI50 (SF-295 CNS) 2.35 µM
0.864 µM: TGI (HCT-15 colon)
3.37 µM: TGI (OVCAR-8 ovarian)
4.61 µM: TGI (SF-295 CNS)
active: GI50 (HCT-15 colon) 0.365 µM | GI50 (RPMI-8226 leukemia) 0.366 µM | GI50 (MALME-3M melanoma) 0.36 µM

O=C/C(=C(/Cl)c1ccc(O)cc1)c1ccccc1
37.5 µM: TGI (OVCAR-3 ovarian)
46 µM: TGI (HCT-15 colon)
55.1 µM: TGI (NCI-H23 lung)
> 67.2 µM: TGI (SNB-75 CNS)
> 56.8 µM: TGI (CAKI-1 renal)
> 100 µM: TGI (KM12 colon)
70.4 µM: TGI (MALME-3M melanoma)
> 72.2 µM: TGI (SF-295 CNS)
> 92.4 µM: TGI (OVCAR-8 ovarian)
> 63 µM: TGI (RPMI-8226 leukemia)

CC(=O)N[C@H](C(=O)N[C@@H](CCCNC(=N)N)C(=O)N[C@@H](CCCCN)C(=O)N[C@@H](CCCNC(=N)N)C(=O)N[C@]1(C)CCCCCC/C=C\CCC[C@@](C)(C(=O)N[C@@H](CCCNC(=N)N)C(=O)N[C@@H](CCC(=O)O)C(=O)N[C@@H](CC(C)C)C(=O)N[C@H](C(=O)N[C@@H](CCC(=O)O)C(N)=O)C(C)C)NC(=O)[C@H](CCC(N)=O)NC(=O)[C@H](CC(C)C)NC(=O)[C@H](CC(C)C)NC(=O)[C@H](CCCNC(=N)N)NC(=O)[C@H](CCCNC(=N)N)NC(=O)[C@H](CC(C)C)NC1=O)C(C)C
inactive: GI50 (CAKI-1 renal) 2.06 µM | GI50 (KM12 colon) 1.3 µM | GI50 (OVCAR-3 ovarian) 6.16 µM | GI50 (OVCAR-8 ovarian) 1.6 µM | GI50 (NCI-H23 lung) 2.77 µM | GI50 (SNB-75 CNS) 1.99 µM | GI50 (SF-295 CNS) 4.4 µM | GI50 (HCT-15 colon) 3.02 µM | GI50 (RPMI-8226 leukemia) 6.48 µM | GI50 (MALME-3M melanoma) 1.19 µM
> 50 µM: TGI (OVCAR-8 ovarian)
47.3 µM: TGI (HCT-15 colon)
3.77 µM: TGI (KM12 colon)
13.1 µM: TGI (SNB-75 CNS)
20.9 µM: TGI (RPMI-8226 leukemia)
11.7 µM: TGI (CAKI-1 renal)
30.1 µM: TGI (NCI-H23 lung) | TGI (SF-295 CNS)
2.72 µM: TGI (MALME-3M melanoma)
19.2 µM: TGI (OVCAR-3 ovarian)

— PubChem BioAssay (NCI)
